Source: US20220110917A1 (priority 2018, published 2022)

Columns and labels:
[1] = in vivo, po
[2] = human, in vivo, po
[3] = oral administration in suspension; cited from earlier work
[4] = in vivo; cited from earlier work

In the case of `CCN(CC)CCN1C(=O)CN=C(c2ccccc2F)c2cc(Cl)ccc21` [Flurazepam], the “residual effect on Choice Reaction Time” value [1] is reported as “showed significant effect” and the “residual effect on Critical Flicker Fusion” value [1] is reported as “showed significant effect”.

In the case of `Oc1noc2c1CCNC2` [gaboxadol, 4,5,6,7-tetrahydroisoxazolo [5,4-c] pyridine-3-ol], the “AUC0-∞ Slope (90% CI), dose proportionality” value [2] is reported as 0.98 (0.95, 1.01), the “Cmax Slope (90% CI), dose proportionality” value [2] is reported as 0.95 (0.88, 1.02) and the “residual effect on Choice Reaction Time” value [1] is reported as “did not show residual effect”. The “residual effect on Critical Flicker Fusion” value [1] was “did not show residual effect”, the “residual effects on Body Sway” value [1] was “did not show any signs of residual effects” and the “residual effects on Digit symbol substitution test (DSST)” value [1] was “did not show any signs of residual effects”. The “residual effects on Leeds Sleep Evaluation Questionnaire” value [1] was “did not show any signs of residual effects”, the “residual effects on Memory tests” value [1] was “did not show any signs of residual effects” and the “residual effects on Multiple Sleep Latency Test (MSLT)” value [1] was “did not show any signs of residual effects”. For the same compound, the “residual effects on Tracking” value [1] was “did not show any signs of residual effects”.

For `CC(=O)[C@H]1CC[C@H]2[C@@H]3CC[C@H]4C[C@](C)(O)CC[C@]4(C)[C@H]3CC[C@]12C` [ganaxolone], the Tmax [3] is listed as 1.2 to 2.5 h and the plasma half-life [3] is listed as “approximately 20 h”.

For `CC(=O)[C@H]1CC[C@H]2[C@@H]3CC[C@H]4C[C@H](O)CC[C@]4(C)[C@H]3CC[C@]12C` [allopregnanolone, 3α, 5α-tetrahydroprogesterone], the half-life [4] is listed as “about 35 minutes”.
